Test results as given in patent US20040072811A1, “Use of antiprogestins for the induction of apoptosis in a cell” (priority 2000, published 2004).
Entries after “also recorded” stand apart in the source; their conditions may differ.

How the values were obtained:
[1] = system: T47D cells; experiment: Antiproliferative activity in vitro in the T47D cell line (estradiol-stimulated, crystal violet); format: cell-based, human; details: 0.1 nM estradiol, 6 days
Method: T47D cells were grown in charcoal-treated serum supplemented with 0.1 nM E2 (estradiol) plus antiprogestin (I) for 6 days with one medium change. Following fixation and subsequent staining with crystal violet, the absorbance was recorded and values normalized to the absorbance of untreated controls as described in R. B. Lichtner, J. Steroid Biochem. Mol. Biol. 1999, 71; 181-189. The TUNEL assay is performed analogous to above Example 5 with the only difference that instead of tissue sections cells that are cultivated on microscopic slides are used for the assay.

[2] = system: DMBA-induced mammary carcinoma of the rat; experiment: Dose-response study in the DMBA-induced mammary tumor model; format: in vivo, Sprague-Dawley rats; details: 5 mg/kg s.c. daily, 4 weeks
Method: Immature female Sprague-Dawley rats (49-51 days old; 10 animals/group) were used in this study. Mammary tumors were induced by a single oral administration of 10 mg 7,12-dimethylbenz[a]anthracene (DMBA, Serva/Heidelberg). Rats with at least one established tumor with a size of more than 150 mm^2 were treated for 4 weeks by: 1) solvent control, 2) ovariectomy at treatment start, 3) antiprogestin (I), 0,5 mg/kg s.c., 4) antiprogestin (1), 2 mg/kg s.c., 5) antiprogestin (I), 5 mg/kg s.c., 6) antiprogestin (1), 10 mg/kg s.c., and 7) onapristone, 5 mg/kg, s.c., daily. As a parameter for growth inhibition the change of tumor area (in % with respect to initial tumor size) determined by weekly caliper measurements was used. For statistical analysis of intergroup differences of mean values the Kruskal-Wallis-test was used. For a further description and evaluation of the DMBA prevention model, see R. G. Metha, European Journal of Cancer 36 (2000), pp. 1275-1282.

[3] = system: NMU-induced mammary carcinoma of the rat; experiment: Tumor growth inhibition in NMU-induced breast cancer model in rat; format: in vivo, Sprague-Dawley rats; details: 5 mg/kg/day, 4 weeks
Method: Tumors were induced by a single intravenous injection of NMU (nitrosomethylurea, 50 mg/kg) in female Sprague-Dawley rats (obtained from Tierzucht Schönwalde, age 50-55 days). Starting 10 days later, rats with at least one established tumor were treated for 4 weeks by: 1) solvent control, 2) ovariectomy at treatment start, 3) antiprogestin (I), 1.0 mg/kg/day, 4) antiprogestin (1), 0.5 mg/kg/day and 5) onapristone, 5 mg/kg/day. As a parameter for growth inhibition the change of tumor area (in % of initial tumor size) determined by weekly caliper measurements was used. For statistical analysis of intergroup differences of mean values the Kruskal-Wallis-test was used.

`CN(CCCCC[C@@H]1Cc2cc(O)ccc2[C@@H]2[C@@H]1[C@@H]1CC[C@H](O)[C@@]1(C)C[C@@H]2F)CCCSCCCC(F)(F)C(F)(F)F` [11β-fluoro-7α-{5-[N-methyl-N-3-(4,4,5,5,5-pentafluoropentylthio)-propylamino]-pentyl}-estra-1,3,5(10)-trien-3,17β-diol] was tested, and the “inhibition of estradiol-stimulated T47D cell growth” value [1] was “distinctly less effective than antiprogestin (I)”.
For `CN(C)c1ccc([C@H]2C[C@]3(C)[C@@H](CC[C@]3(O)CCCO)[C@@H]3CCC4=CC(=O)CCC4=C32)cc1` [onapristone, reference compound], the “tumor growth inhibiting effect relative to antiprogestin (I)” value [2] was “distinctly less effective than antiprogestin (I)”, the “tumor growth inhibiting effect relative to antiprogestin (I) at 0.5 mg/kg” value [3] was “distinctly less effective than antiprogestin (1)” and the “inhibition of estradiol-stimulated T47D cell growth” value [1] was “did not show any inhibiting effect; also recorded: no reducing effect on cell growth”.
